{
  "source": "the SangsterLogP compilation",
  "data": [
    {"assay": "method code SF-GLC, from DOI: 10.1016/0048-3575(78)90090-1", "values": [
      {"compound": "FC1C(Cl)C(Cl)C(Cl)C(Cl)C1Br", "note": "(stereo not given)", "logP": 3.28},
      {"compound": "ClC1CC(Cl)C(Cl)C(Cl)C1Cl", "note": "(stereo not given)", "logP": 3.53},
      {"compound": "CC1C(Cl)C(Cl)C(Cl)C(Cl)C1Cl", "note": "(stereo not given)", "logP": 4.04},
      {"compound": "COC1C(Cl)C(Cl)C(Cl)C(Cl)C1Cl", "note": "(stereo not given)", "logP": 3.14},
      {"compound": "ClC1CC(Cl)C(Cl)CC1Cl", "note": "(stereo not given)", "logP": 2.82},
      {"compound": "CC(=O)Oc1c(Cl)c(Cl)c(Cl)c(Cl)c1Cl", "logP": 3.4},
      {"compound": "ClC1C(Cl)C(Cl)C(Br)C(Br)C1Cl", "note": "(stereo not given)", "logP": 3.88},
      {"compound": "COC1C(Cl)C(Cl)C(Cl)C(Cl)C1OC", "note": "(stereo not given)", "logP": 2.55},
      {"compound": "ClC1C(Cl)C(Br)C(Cl)C(Cl)C1Br", "note": "(stereo not given)", "logP": 3.98},
      {"compound": "OCC1C(Cl)C(Cl)C(Cl)C(Cl)C1Cl", "note": "(stereo not given)", "logP": 2.94},
      {"compound": "FC(F)(F)COC1C(Cl)C(Cl)C(Cl)C(Cl)C1Cl", "note": "(stereo not given)", "logP": 4.06},
      {"compound": "CCOC1C(Cl)C(Cl)C(Cl)C(Cl)C1Cl", "note": "(stereo not given)", "logP": 3.69},
      {"compound": "CC1C(Cl)C(Cl)C(C)C(Cl)C1Cl", "note": "(stereo not given)", "logP": 4.4},
      {"compound": "ClC1C(Cl)C(Cl)C(Br)C(Cl)C1Cl", "note": "(stereo not given)", "logP": 3.74},
      {"compound": "COC1C(Cl)C(Cl)C(OC)C(Cl)C1Cl", "note": "(stereo not given)", "logP": 3.15},
      {"compound": "ClC1C(Cl)C(Cl)C(I)C(Cl)C1Cl", "note": "(stereo not given)", "logP": 3.96},
      {"compound": "COC1C(Cl)C(Cl)C(Cl)C(OC)C1OC", "note": "(stereo not given)", "logP": 1.87},
      {"compound": "COC1CC(Cl)C(Cl)C(Cl)C1Cl", "note": "(stereo not given)", "logP": 2.99},
      {"compound": "FC1C(Cl)C(Cl)C(Cl)C(Cl)C1Cl", "note": "(stereo not given)", "logP": 3.19},
      {"compound": "OC1C(Cl)C(Cl)C(Cl)C(Cl)C1Cl", "note": "(stereo not given)", "logP": 2.54}
    ]}
  ]
}
